Some test systems named below: OVCAR-3; OVCAR-5; HCT-116; NCI-H226; UO-31; SN12C; NCI-H460; SF-268; Malme-3M; A498; MOLT-4; RPMI-8226; SK-MEL-28; TK-10; ACHN; NCI-H23; M14; SK-MEL-5; SK-MEL-2; HCT-15.
Holding throughout (assay): NCI tumour cell line growth inhibition, 48 h

The structures appear in SMILES notation.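 48-hour exposure; five concentrations; linearly interpolated endpoints. GI50 marks 50% less growth.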 Calls of active or inactive are those of the source. Cut-off read from the data, not from the text of the source: active = GI50 up to about 1.1 µM and inactive = higher. Where only a bound is given, the exact number is not on record here.

Regarding `CSc1ncnc2c1ncn2CCC#N`, the GI50 with OVCAR-3, in the assay with OVCAR-5, in the assay on HCT-116, with NCI-H226, with UO-31 and with SN12C was > 100 µM (inactive) each time. The GI50 with NCI-H460, in the assay on SF-268, with Malme-3M, with A498, in the assay on MOLT-4 and in the assay with RPMI-8226 was > 100 µM (inactive) throughout. Besides, the GI50 with SK-MEL-28, with TK-10, with ACHN, in the assay on NCI-H23, with M14 and in the assay on SK-MEL-5 was > 100 µM (inactive) in each case.

For `Cc1c(Cl)c(=O)oc2cc(OCC(=O)c3ccccc3)ccc12`, the GI50 in the assay on OVCAR-3, in the assay on OVCAR-5, with NCI-H226, in the assay with UO-31, in the assay on SN12C and with SK-MEL-2 was > 100 µM (inactive) throughout. In addition, the GI50 in the assay with NCI-H460, with SF-268, with Malme-3M, in the assay on A498, in the assay on MOLT-4 and in the assay on SK-MEL-28 was > 100 µM (inactive) throughout. In addition, the GI50 in the assay on TK-10 is 92 µM (inactive); in the assay with ACHN, > 100 µM (inactive); with NCI-H23, > 100 µM (inactive); in the assay with M14, > 100 µM (inactive); in the assay on HCT-15, over 100 µM; in the assay on SK-MEL-5, > 100 µM (inactive).

With `CN(C)CCCNC(=O)N/N=C/c1ccccc1`, the GI50 in the assay with OVCAR-3, in the assay with HCT-116, with NCI-H226, in the assay on UO-31, in the assay on SN12C and in the assay on SK-MEL-2 was > 100 µM (inactive) in each case. In addition, the GI50 in the assay on NCI-H460, with SF-268, with Malme-3M, with A498, in the assay on MOLT-4 and in the assay with SK-MEL-28 was > 100 µM (inactive) throughout. The GI50 was > 100 µM (inactive) in the assay with TK-10, > 100 µM (inactive) in the assay with ACHN, over 100 µM with HCT-15 and > 100 µM (inactive) in the assay on SK-MEL-5.

For the molecule `O=C1NC(=O)C(CCO)(c2ccccc2)C(=O)N1`, the GI50 in the assay with OVCAR-3, in the assay on OVCAR-5, in the assay on HCT-116, in the assay with NCI-H226, in the assay with UO-31 and in the assay with SN12C was > 100 µM (inactive) each time. The GI50 in the assay with SK-MEL-2, in the assay on NCI-H460, with SF-268, in the assay on Malme-3M, in the assay with A498 and in the assay with MOLT-4 was > 100 µM (inactive) each time. Further, the GI50 in the assay with SK-MEL-28 is > 100 µM (inactive); in the assay with NCI-H23, > 100 µM (inactive); in the assay with HCT-15, over 100 µM; in the assay on SK-MEL-5 it was > 100 µM (inactive).

As for `N#CCCC(CCC#N)(CCC#N)NO`, the GI50 in the assay with OVCAR-5, with HCT-116, in the assay on NCI-H226, with UO-31, with SN12C and in the assay on SK-MEL-2 was > 100 µM (inactive) in each case. The GI50 in the assay on NCI-H460, in the assay with SF-268, in the assay with Malme-3M, with RPMI-8226, with TK-10 and in the assay with ACHN was > 100 µM (inactive) throughout. Also, the GI50 in the assay on NCI-H23 was > 100 µM (inactive); with M14, > 100 µM (inactive); with HCT-15, over 100 µM; in the assay on SK-MEL-5, > 100 µM (inactive).

`COc1ccc(/C=C2\C(=O)N(C(=O)c3ccc(NC(C)=O)cc3)N=C2C)cc1`: the GI50 with OVCAR-3, in the assay with OVCAR-5, with HCT-116, with NCI-H226, with UO-31 and in the assay with SN12C was > 100 µM (inactive) throughout. Further, the GI50 in the assay on SK-MEL-2, in the assay on NCI-H460, in the assay on SF-268, in the assay on Malme-3M, with MOLT-4 and in the assay with RPMI-8226 was > 100 µM (inactive) in each case. Further, the GI50 in the assay with SK-MEL-28 is > 100 µM (inactive); in the assay with TK-10, > 100 µM (inactive); in the assay on ACHN it was > 100 µM (inactive); in the assay with NCI-H23 it was > 100 µM (inactive); in the assay on M14, > 100 µM (inactive); in the assay on HCT-15, over 100 µM. Further, in the assay with SK-MEL-5, the GI50 is > 100 µM (inactive).

For the molecule `O=c1c(-c2ccccc2)c2oc(c1-c1ccccc1)CS(=O)(=O)CCC2`, the GI50 with OVCAR-3 was 22.6 µM (inactive); in the assay with HCT-116, 12.7 µM (inactive); with NCI-H226, 18.5 µM (inactive); in the assay with SN12C, 16.9 µM (inactive); in the assay on SK-MEL-2, > 100 µM (inactive); in the assay on NCI-H460 it was 31.6 µM (inactive). The GI50 with SF-268 was 21.9 µM (inactive); in the assay with Malme-3M, 49.4 µM (inactive); in the assay on MOLT-4, 24.2 µM (inactive); in the assay with RPMI-8226 it was 26.9 µM (inactive); in the assay on SK-MEL-28, 17.5 µM (inactive); with TK-10, 37.5 µM (inactive). Further, the GI50 was 29 µM (inactive) in the assay with ACHN, 17.6 µM (inactive) with NCI-H23, 15.6 µM in the assay with HCT-15 and 27.7 µM (inactive) in the assay on SK-MEL-5.

For `O=C1CCCCC2N(C(c3ccccc3)c3ccccc3)CC[C@@]12c1ccccc1.O=C1CCCC[C@H]2N(C(c3ccccc3)c3ccccc3)CC[C@@]12c1ccccc1` (stereo not given in full), the GI50 in the assay with OVCAR-3 was > 10 µM (inactive); in the assay on OVCAR-5, > 10 µM (inactive); in the assay with HCT-116 it was 2.99 µM (inactive); in the assay on NCI-H226 it was 6.38 µM (inactive); with UO-31 it was 8.05 µM (inactive); in the assay with SN12C, > 10 µM (inactive). Further, the GI50 in the assay with NCI-H460 was 9.55 µM (inactive); in the assay with SF-268 it was > 10 µM (inactive); in the assay with A498 it was > 10 µM (inactive); in the assay with MOLT-4, 3.06 µM (inactive); with RPMI-8226 it was 2.77 µM (inactive); in the assay with SK-MEL-28, > 10 µM (inactive). Also, the GI50 in the assay on TK-10 was > 10 µM (inactive); in the assay on ACHN, 8.87 µM (inactive); with NCI-H23 it was 4.8 µM (inactive); in the assay on M14, > 10 µM (inactive); in the assay with HCT-15 it was 7.93 µM; in the assay on SK-MEL-5, 4.57 µM (inactive).

For `Cc1nn(C)c2c1C(=O)N(C)CC(=O)N2C`, the GI50 in the assay on OVCAR-3, in the assay on OVCAR-5, in the assay on HCT-116, with UO-31, in the assay with SN12C and with NCI-H460 was > 100 µM (inactive) in each case. Besides, the GI50 with SF-268, in the assay on Malme-3M, in the assay with A498, in the assay on MOLT-4, with RPMI-8226 and with SK-MEL-28 was > 100 µM (inactive) each time. The GI50 is > 100 µM (inactive) in the assay on TK-10; > 100 µM (inactive) with ACHN; > 100 µM (inactive) in the assay on NCI-H23; > 100 µM (inactive) with M14; 69.7 µM in the assay with HCT-15; > 100 µM (inactive) in the assay on SK-MEL-5.

With `N#Cc1c(NC(=S)NC(=O)c2ccccc2)nc2c(c1-c1ccccc1)CCCC2`, the GI50 with OVCAR-3 was > 100 µM (inactive); in the assay with OVCAR-5 it was > 100 µM (inactive); with HCT-116, > 100 µM (inactive); with UO-31, 88.7 µM (inactive); in the assay with SN12C, > 10 µM (inactive); in the assay on NCI-H460, > 100 µM (inactive). Besides, the GI50 is 0.299 µM (active) in the assay on SF-268; > 10 µM (inactive) in the assay on Malme-3M; > 100 µM (inactive) with MOLT-4; > 100 µM (inactive) in the assay with RPMI-8226; 78.7 µM (inactive) with SK-MEL-28; > 100 µM (inactive) in the assay on TK-10. Moreover, the GI50 in the assay with NCI-H23 is > 100 µM (inactive); with M14, > 100 µM (inactive); in the assay with HCT-15, over 100 µM; with SK-MEL-5 it was 73.6 µM (inactive).

For the molecule `CN(C)c1ccc(C2CC(=O)CC(c3ccc(N(C)C)cc3)C23C(=O)NC(=O)NC3=O)cc1` (stereo not given), the GI50 in the assay on OVCAR-3, in the assay on OVCAR-5, with HCT-116, in the assay with NCI-H226, in the assay on UO-31 and in the assay on SN12C was > 25 µM (inactive) each time. Further, the GI50 was 16.7 µM (inactive) in the assay on SK-MEL-2; > 25 µM (inactive) with NCI-H460; 19.5 µM (inactive) in the assay on SF-268; 8.73 µM (inactive) with Malme-3M; 0.0025 µM (active) in the assay on MOLT-4; > 25 µM (inactive) with RPMI-8226. In addition, the GI50 was > 25 µM (inactive) in the assay with SK-MEL-28; > 25 µM (inactive) in the assay on TK-10; > 25 µM (inactive) in the assay on ACHN; > 25 µM (inactive) in the assay with NCI-H23; > 25 µM (inactive) in the assay on M14; over 25 µM with HCT-15. Moreover, the GI50 in the assay on SK-MEL-5 is > 25 µM (inactive).

The values are drawn from ChEMBL document CHEMBL1201862, “PubChem BioAssay data set” (2004).
